Reference: patent US9670204B2, “Compounds and pharmaceutical compositions thereof for the treatment of inflammatory disorders” (Galapagos NV, priority 2013, dated 2017)
pIC50: −log10 of the molar value.

Legend:
[1] = test system: LPA 18:2 in rat plasma; experiment: Rat whole blood (plasma) LPA assay; type: biochemical; details: 2 h at 37 C, LPA 18:2 by LC-MS/MS
Experimental: Whole blood is collected from rats or mouse by exsanguinations on sodium heparin tube, then after centrifugation at 3000 rpm for 15 min at 4° C., plasma is stored at −80° C. Compounds are diluted in DMSO in concentration dependent manner then 0.5 μL are dispensed into 96-well plate placed in ice. Plasma is defrosted on ice then 49.5 μL of plasma are added into the well containing 0.5 μL of compound (1% DMSO final). Plates are covered with a lid in polypropylene and incubated at +37° C., 5% CO2, for 2 h under gentle shaking (except controls which are stored at −20° C.).
At the end of the incubation, controls are defrosted in ice and transferred in the incubated plates for LC-MS/MS analysis with a non GLP-validated method. For the analysis, plasma proteins from a 10 μL incubated plates are precipitated with an excess of methanol containing the internal standard, LPA 17:0. After centrifugation, the corresponding supernatant is injected on a C18 column. Analytes are eluted out of the column under isocratic conditions. An API5500 QTRAP mass spectrometer (ABSciex™) is used for the detection of LPA 18:2. No calibration curve is prepared for LPA 18:2, however relative quantities are evaluated based on the peak area.

[2] = molecular target: T1, hENPP2 (UniProtKB/SwissProt Q13822) (Homo sapiens (Human), UniProt Q13822); experiment: hENPP2 biochemical assay, LPC as substrate; details: LPC (palmitoyl 16:0) as substrate
How it was run: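 Human ENPP2 in 50 mM Tris-HCl pH 8.5, 500 mM NaCl, 5 mM KCl, 10 mM CaCl2, 0.1% fatty-acid-free BSA, reacted 30 min at 37 °C with LPC 16:0 (150 µM solution added 1:1). Released choline measured via choline oxidase/peroxidase/TOOS/4-aminoantipyrine quinoneimine dye at 555 nm; IC50 reported.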

[3] = molecular target: T1, hENPP2; experiment: fluorescent hENPP2 biochemical assay, FS-3 as substrate; details: read-out: FS3-IC50
How it was run: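 hENPP2 in 50 mM Tris-HCl pH 8.0, 250 mM NaCl, 5 mM KCl, 1 mM MgCl2, 1 mM CaCl2, 0.1% fatty-acid-free BSA, preincubated with compound 30 min at room temperature. The 0.75 μM FS-3 solution was added and the mixture incubated 30 min at 30° C. Fluorescence (ex 485/em 520 nm) gives IC50.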

Row | Structure (SMILES) | pIC50 [1] | pIC50 [2] | pIC50 [3]
1 | CCc1nc2c(C)cc(C3CCN(CC(=O)N4CC(O)C4)CC3)cn2c1N(C)c1nc(-c2ccc(F)cc2)c(C#N)s1 [Compound 10, 2-((2-ethyl-6-(1-(2-(3-hydroxyazetidin-1-yl)-2-oxoethyl)piperidin-4-yl)-8-methylimidazo[1,2-a]pyridin-3-yl)(methyl)amino)-4-(4-fluorophenyl)thiazole-5-carbonitrile] | 6.30 to 7.00 |  | 
2 | CCc1nc2ccc(C3CCN(CC4COC(=O)O4)CC3)cn2c1N(C)c1nc(-c2ccc(F)cc2)cs1 (stereo not drawn) [Compound 118, 4-((4-(2-ethyl-3-((4-(4-fluorophenyl)thiazol-2-yl)(methyl)amino)imidazo[1,2-a]pyridin-6-yl)piperidin-1-yl)methyl)-1,3-dioxolan-2-one] |  | 6.30 to 7.00 | 7.00 to 11.00
3 | CCc1nc2ccc(N3CCN(CC(=O)N4CCC(NC(C)=O)C4)CC3)cn2c1N(C)c1nc(-c2ccc(F)cc2)cs1 (stereo not drawn) [Compound 27, N-(1-(2-(4-(2-ethyl-3-((4-(4-fluorophenyl)thiazol-2-yl)(methyl)amino)imidazo[1,2-a]pyridin-6-yl)piperazin-1-yl)acetoyl)pyrrolidin-3-yl)acetamide] |  | 6.30 to 7.00 | 7.00 to 11.00
4 | CCOC(=O)CN1CCC(c2ccc3nc(CC)c(N(C)c4nc(-c5ccc(F)cc5)cs4)n3c2)CC1 [Compound 109, ethyl 2-(4-(2-ethyl-3-((4-(4-fluorophenyl)thiazol-2-yl)(methyl)amino)imidazo[1,2-a]pyridin-6-yl)piperidin-1-yl)acetate] |  | 6.30 to 7.00 | 7.00 to 11.00
5 | CCOC(=O)CN1CCN(c2ccc3nc(CC)c(N(C)c4nc(-c5ccc(F)cc5)cs4)n3c2)CC1 [Compound 36, ethyl 2-(4-(2-ethyl-3-((4-(4-fluorophenyl)thiazol-2-yl)(methyl)amino)imidazo [1,2-a]pyridin-6-yl)piperazin-1-yl)acetate] |  | 6.30 to 7.00 | 7.00 to 11.00
6 | CCc1nc2ccc(N3CCN(C(=O)OC(C)(C)C)CC3=O)cn2c1N(C)c1nc(-c2ccc(F)cc2)cs1 [Compound 62, 4-(2-Ethyl-3-{[4-(4-fluoro-phenyl)-thiazol-2-yl]-methyl-amino}-imidazo[1,2-a]pyridin-6-yl)-3-oxo-piperazine-1-carboxylic acid tert-butyl est] |  | < 6.00 | 7.00 to 11.00
7 | CCc1nc2ccc(N3CCN(C(=O)OC(C)(C)C)CC3=O)cn2c1N(C)c1nc(-c2ccc(Cl)cc2)cs1 [Compound 63, tert-butyl 4-(3-((4-(4-chlorophenyl)thiazol-2-yl)(methyl)amino)-2-ethylimidazo[1,2-a]pyridin-6-yl)-3-oxopiperazine-1-carboxylate] |  | < 6.00 | 7.00 to 11.00
8 | CCc1nc2ccc(C3CCN(CC(=O)N4CC(F)(F)C4)CC3)cn2c1N(C)c1nc(-c2ccc(F)cc2)cs1 [Compound 124, 1-(3,3-difluoroazetidin-1-yl)-2-(4-(2-ethyl-3-((4-(4-fluorophenyl)thiazol-2-yl)(methyl)amino)imidazo[1,2-a]pyridin-6-yl)piperidin-1-yl)ethanone] |  | < 6.00 | 7.00 to 11.00
9 | CCc1nc2ccc(C3CCN(S(C)(=O)=O)CC3)cn2c1N(C)c1nc(-c2ccc(C(C)(C)C)cc2)cs1 [Compound 81, 4-(4-tert-butylphenyl)-N-(2-ethyl-6-(1-(methylsulfonyl)piperidin-4-yl)imidazo [1,2-a]pyridin-3-yl)-N-methylthiazol-2-amine] |  | < 6.00 | 7.00 to 11.00
10 | CCc1nc2ccc(C3CCN(S(C)(=O)=O)CC3)cn2c1N(C)c1nc(-c2ccc(F)cc2)c(C)s1 [Compound 101, N-(2-ethyl-6-(1-(methylsulfonyl)piperidin-4-yl)imidazo [1,2-a]pyridin-3-yl)-4-(4-fluorophenyl)-N,5-dimethylthiazol-2-amine] |  | < 6.00 | 7.00 to 11.00
11 | CCc1nc2ccc(C3CCN(C(=O)CN4CC(F)C4)CC3)cn2c1N(C)c1nc(-c2ccc(F)cc2)cs1 [Compound 133, 1-(4-(2-ethyl-3-((4-(4-fluorophenyl)thiazol-2-yl)(methyl)amino)imidazo[1,2-a]pyridin-6-yl)piperidin-1-yl)-2-(3-fluoroazetidin-1-yl)ethanone] |  | 6.30 to 7.00 | 7.00 to 11.00
12 | CCc1nc2ccc(C3CCN(S(=O)(=O)CCCCl)CC3)cn2c1N(C)c1nc(-c2ccc(F)cc2)cs1 [Compound 86, N-(6-(1-(3-chloropropylsulfonyl)piperidin-4-yl)-2-ethylimidazo[1,2-a]pyridin-3-yl)-4-(4-fluorophenyl)-N-methylthiazol-2-amine] |  | < 6.00 | 7.00 to 11.00
13 | CCc1nc2ccc(N3CC(NC(=O)CN4CC(O)C4)C3)cn2c1N(C)c1nc(-c2ccc(F)cc2)cs1 [Compound 179, N-(1-(2-ethyl-3-((4-(4-fluorophenyl)thiazol-2-yl)(methyl)amino)imidazo[1,2-a]pyridin-6-yl)azetidin-3-yl)-2-(3-hydroxyazetidin-1-yl)acetamide] |  | < 6.00 | 7.00 to 11.00
14 | CCc1nc2ccc(N3CCN(C(=O)C4CCNC4)CC3)cn2c1N(C)c1nc(-c2ccc(F)cc2)cs1 (stereo not drawn) [Compound 47, (4-(2-ethyl-3-((4-(4-fluorophenyl)thiazol-2-yl)(methyl)amino)imidazo[1,2-a]pyridin-6-yl)piperazin-1-yl)(pyrrolidin-3-yl)methanone] |  | < 6.00 | 7.00 to 11.00
15 | CCc1nc2ccc(C3CCN(Cc4ccccc4)CC3)cn2c1N(C)c1nc(-c2ccc(F)cc2)cs1 [Compound 217, [6-(1-Benzyl-piperidin-4-yl)-2-ethyl-imidazo[1,2-a]pyridin-3-yl]-[4-(4-fluoro-phenyl)-thiazol-2-yl]-methyl-amine] |  | < 6.00 | 7.00 to 11.00

Continued, values first:

Row | pIC50 [1] | pIC50 [2] | pIC50 [3] | Structure (SMILES)
16 |  | < 6.00 | 7.00 to 11.00 | CCc1nc2ccc(N3CCN(CC#N)CC3)cn2c1N(C)c1nc(-c2ccc(F)cc2)cs1 [Compound 38, 2-(4-(2-ethyl-3-((4-(4-fluorophenyl)thiazol-2-yl)(methyl)amino)imidazo[1,2-a]pyridin-6-yl)piperazin-1-yl)acetonitrile]
17 |  | < 6.00 | 7.00 to 11.00 | CCc1nc2ccc(C3=CN(S(C)(=O)=O)CCC3)cn2c1N(C)c1nc(-c2ccc(Cl)cc2)cs1 [Compound 69, 4-(4-chlorophenyl)-N-(2-ethyl-6-(1-(methylsulfonyl)-1,4,5,6-tetrahydropyridin-3-yl)imidazo[1,2-a]pyridin-3-yl)-N-methylthiazol-2-amine]
18 |  | < 6.00 | 6.30 to 7.00 | CCc1nc2ccc(C3=CCN(S(C)(=O)=O)CC3)cn2c1N(C)c1nc(-c2ccc(F)cc2)ns1 [Compound 199, N-(2-ethyl-6-(1-(methylsulfonyl)-1,2,3,6-tetrahydropyridin-4-yl)imidazo[1,2-a]pyridin-3-yl)-3-(4-fluorophenyl)-N-methyl-1,2,4-thiadiazol-5-amine]
19 |  | < 6.00 | 7.00 to 11.00 | CCc1nc2ccc(C3=CCOCC3)cn2c1N(C)c1nc(-c2ccc(F)cc2)cs1 [Compound 220, N-(6-(3,6-dihydro-2H-pyran-4-yl)-2-ethylimidazo[1,2-a]pyridin-3-yl)-4-(4-fluorophenyl)-N-methylthiazol-2-amine]
20 |  | < 6.00 | 7.00 to 11.00 | CCc1nc2ccc(N3CCN(Cc4ncon4)CC3)cn2c1N(C)c1nc(-c2ccc(F)cc2)cs1 [Compound 41, N-(6-(4-((1,2,4-oxadiazol-3-yl)methyl)piperazin-1-yl)-2-ethylimidazo[1,2-a]pyridin-3-yl)-4-(4-fluorophenyl)-N-methylthiazol-2-amine]
21 |  | < 6.00 | 6.30 to 7.00 | CCc1nc2ccc(N3CCCS3(=O)=O)cn2c1N(C)c1nc(-c2ccc(F)cc2)cs1 [Compound 229, [6-(1,1-Dioxo-isothiazolidin-2-yl)-2-ethyl-imidazo[1,2-a]pyridin-3-yl]-[4-(4-fluoro-phenyl)-thiazol-2-yl]-methyl-amine]
22 |  | < 6.00 | 7.00 to 11.00 | CCc1nc2ccc(N3CCN(C(=O)C4CC4)CC3)cn2c1N(C)c1nc(-c2ccc(F)cc2)cs1 [Compound 227, Cyclopropyl-[4-(2-ethyl-3-{[4-(4-fluoro-phenyl)-thiazol-2-yl]-methyl-amino}-imidazo[1,2-a]pyridin-6-yl)-piperazin-1-yl]-methanone]
23 |  | < 6.00 | 7.00 to 11.00 | CCc1nc2ccc(C3=CCN(S(C)(=O)=O)CC3)cn2c1N(C)c1nc(-c2ccc(Cl)cc2)cs1 [Compound 209, 4-(4-chlorophenyl)-N-(2-ethyl-6-(1-(methylsulfonyl)-1,2,3,6-tetrahydropyridin-4-yl)imidazo[1,2-a]pyridin-3-yl)-N-methylthiazol-2-amine]
